Measured values from ChEMBL document CHEMBL2417397, “Synthesis and biological properties of new N-Mannich bases derived from 3-methyl-3-phenyl- and 3,3-dimethyl-succinimides. Part V” (Eur J Med Chem, 2013).
The source made the active and inactive calls. The calls are words filed in the database; no cut-off is given here.

Test system: not listed separately
Experiment: Neurotoxicity in ip dosed CF-1 albino mouse after 4 hrs by rotarod test
Type: toxicity, organism-based
Settings: CF-1, mouse, in vivo

Compound | TD50 at 4 h [mg/kg]
CC1(C)CC(=O)N(CN2CCN(c3ccccc3)CC2)C1=O | 300
CC1(C)CC(=O)N(CN2CCN(c3cccc(Cl)c3)CC2)C1=O | 300
CC1(C)CC(=O)N(CN2CCN(c3cccc(C(F)(F)F)c3)CC2)C1=O | 300
Cc1ccccc1N1CCN(CN2C(=O)CC(C)(C)C2=O)CC1 | 300
CC1(c2ccccc2)CC(=O)N(CN2CCN(c3ccccc3F)CC2)C1=O (stereo unspecified) | 300
CC1(c2ccccc2)CC(=O)N(CN2CCN(c3cccc(C(F)(F)F)c3)CC2)C1=O (stereo unspecified) | 300

Test system: Vibrio harveyi
Experiment: Antimutagenic activity in Vibrio harveyi BB7XM assessed as inhibition of 4-nitroquinoline-N-oxide-induced mutation
Type: functional
Settings: not given

Compound | inhibition (INH) [%]
CCC1(C)CC(=O)NC1=O (stereo unspecified) [ETHOSUXIMIDE] | 43
CC1(c2ccccc2)CC(=O)N(CN2CCN(c3ccccc3F)CC2)C1=O (stereo unspecified) | 35
CC1(c2ccccc2)CC(=O)N(CN2CCN(c3ccccc3)CC2)C1=O (stereo unspecified) | 40
CC1(c2ccccc2)CC(=O)N(CN2CCN(c3ccccc3Cl)CC2)C1=O (stereo unspecified) | 49
CC1(c2ccccc2)CC(=O)N(CN2CCN(c3ccc(Cl)cc3)CC2)C1=O (stereo unspecified) | 43

Test system: Vibrio harveyi
Experiment: Antimutagenic activity in Vibrio harveyi BB7M assessed as inhibition of 4-nitroquinoline-N-oxide-induced mutation
Type: functional
Settings: not given

Compound | inhibition (INH) [%]
CCC1(C)CC(=O)NC1=O (stereo unspecified) [ETHOSUXIMIDE] | 43
CC1(c2ccccc2)CC(=O)N(CN2CCN(c3ccccc3F)CC2)C1=O (stereo unspecified) | 57
CC1(c2ccccc2)CC(=O)N(CN2CCN(c3ccccc3)CC2)C1=O (stereo unspecified) | 38
CC1(c2ccccc2)CC(=O)N(CN2CCN(c3ccccc3Cl)CC2)C1=O (stereo unspecified) | 47
CC1(c2ccccc2)CC(=O)N(CN2CCN(c3ccc(Cl)cc3)CC2)C1=O (stereo unspecified) | 43

Test system: Vibrio harveyi
Experiment: Antimutagenic activity in Vibrio harveyi BB7X assessed as inhibition of 4-nitroquinoline-N-oxide-induced mutation
Type: functional
Settings: not given

Compound | inhibition (INH) [%]
CCC1(C)CC(=O)NC1=O (stereo unspecified) [ETHOSUXIMIDE] | 0
CC1(c2ccccc2)CC(=O)N(CN2CCN(c3ccccc3F)CC2)C1=O (stereo unspecified) | 0
CC1(c2ccccc2)CC(=O)N(CN2CCN(c3ccccc3)CC2)C1=O (stereo unspecified) | 0
CC1(c2ccccc2)CC(=O)N(CN2CCN(c3ccccc3Cl)CC2)C1=O (stereo unspecified) | 0
CC1(c2ccccc2)CC(=O)N(CN2CCN(c3ccc(Cl)cc3)CC2)C1=O (stereo unspecified) | 0

Test system: Vibrio harveyi
Experiment: Antimutagenic activity in Vibrio harveyi BB7 assessed as inhibition of 4-nitroquinoline-N-oxide-induced mutation
Type: functional
Settings: not given

Compound | inhibition (INH) [%]
CCC1(C)CC(=O)NC1=O (stereo unspecified) [ETHOSUXIMIDE] | 30
CC1(c2ccccc2)CC(=O)N(CN2CCN(c3ccccc3F)CC2)C1=O (stereo unspecified) | 25
CC1(c2ccccc2)CC(=O)N(CN2CCN(c3ccccc3)CC2)C1=O (stereo unspecified) | 28
CC1(c2ccccc2)CC(=O)N(CN2CCN(c3ccccc3Cl)CC2)C1=O (stereo unspecified) | 3
CC1(c2ccccc2)CC(=O)N(CN2CCN(c3ccc(Cl)cc3)CC2)C1=O (stereo unspecified) | 6

Test system: Vibrio harveyi
Experiment: Induction of mutagenecity in Vibrio harveyi BB7XM
Type: organism-based
Settings: in vivo

Compound | Activity
Cc1ccccc1N1CCN(CN2C(=O)CC(C)(c3ccccc3)C2=O)CC1 (stereo unspecified) | Toxic
CCC1(C)CC(=O)NC1=O (stereo unspecified) [ETHOSUXIMIDE] | Non-toxic
CC1(c2ccccc2)CC(=O)N(CN2CCN(c3ccccc3F)CC2)C1=O (stereo unspecified) | Non-toxic
CC1(c2ccccc2)CC(=O)N(CN2CCN(c3ccccc3)CC2)C1=O (stereo unspecified) | Non-toxic
CC1(c2ccccc2)CC(=O)N(CN2CCN(c3ccccc3Cl)CC2)C1=O (stereo unspecified) | Non-toxic
CC1(c2ccccc2)CC(=O)N(CN2CCN(c3ccc(Cl)cc3)CC2)C1=O (stereo unspecified) | Non-toxic

Test system: Vibrio harveyi
Experiment: Induction of mutagenecity in Vibrio harveyi BB7M
Type: organism-based
Settings: in vivo

Compound | Activity
Cc1ccccc1N1CCN(CN2C(=O)CC(C)(c3ccccc3)C2=O)CC1 (stereo unspecified) | Toxic
CCC1(C)CC(=O)NC1=O (stereo unspecified) [ETHOSUXIMIDE] | Non-toxic
CC1(c2ccccc2)CC(=O)N(CN2CCN(c3ccccc3F)CC2)C1=O (stereo unspecified) | Non-toxic
CC1(c2ccccc2)CC(=O)N(CN2CCN(c3ccccc3)CC2)C1=O (stereo unspecified) | Non-toxic
CC1(c2ccccc2)CC(=O)N(CN2CCN(c3ccccc3Cl)CC2)C1=O (stereo unspecified) | Non-toxic
CC1(c2ccccc2)CC(=O)N(CN2CCN(c3ccc(Cl)cc3)CC2)C1=O (stereo unspecified) | Non-toxic

Test system: Vibrio harveyi
Experiment: Induction of mutagenecity in Vibrio harveyi BB7X
Type: organism-based
Settings: in vivo

Compound | Activity
Cc1ccccc1N1CCN(CN2C(=O)CC(C)(c3ccccc3)C2=O)CC1 (stereo unspecified) | Non-toxic
CCC1(C)CC(=O)NC1=O (stereo unspecified) [ETHOSUXIMIDE] | Non-toxic
CC1(c2ccccc2)CC(=O)N(CN2CCN(c3ccccc3F)CC2)C1=O (stereo unspecified) | Non-toxic
CC1(c2ccccc2)CC(=O)N(CN2CCN(c3ccccc3)CC2)C1=O (stereo unspecified) | Non-toxic
CC1(c2ccccc2)CC(=O)N(CN2CCN(c3ccccc3Cl)CC2)C1=O (stereo unspecified) | Non-toxic
CC1(c2ccccc2)CC(=O)N(CN2CCN(c3ccc(Cl)cc3)CC2)C1=O (stereo unspecified) | Non-toxic

Test system: Vibrio harveyi
Experiment: Induction of mutagenecity in Vibrio harveyi BB7
Type: organism-based
Settings: in vivo

Compound | Activity
Cc1ccccc1N1CCN(CN2C(=O)CC(C)(c3ccccc3)C2=O)CC1 (stereo unspecified) | Non-toxic
CCC1(C)CC(=O)NC1=O (stereo unspecified) [ETHOSUXIMIDE] | Non-toxic
CC1(c2ccccc2)CC(=O)N(CN2CCN(c3ccccc3F)CC2)C1=O (stereo unspecified) | Non-toxic
CC1(c2ccccc2)CC(=O)N(CN2CCN(c3ccccc3)CC2)C1=O (stereo unspecified) | Non-toxic
CC1(c2ccccc2)CC(=O)N(CN2CCN(c3ccccc3Cl)CC2)C1=O (stereo unspecified) | Non-toxic
CC1(c2ccccc2)CC(=O)N(CN2CCN(c3ccc(Cl)cc3)CC2)C1=O (stereo unspecified) | Non-toxic

Test system: Rattus norvegicus
Experiment: Neurotoxicity in Sprague-Dawley albino rat assessed as motor impairment at 30 mg/kg, po
Type: toxicity, organism-based
Design: dose 30 mg/kg, route oral
Settings: in vivo

Compound | Activity
CC1(C)CC(=O)N(CN2CCN(c3cccc(C(F)(F)F)c3)CC2)C1=O | Non-toxic
CC1(c2ccccc2)CC(=O)N(CN2CCN(c3ccc(Cl)cc3)CC2)C1=O (stereo unspecified) | Non-toxic

Test system: Rattus norvegicus
Experiment: Anticonvulsant activity in Sprague-Dawley albino rat assessed as protection against maximal electroshock-induced seizures at 30 mg/kg, po after 4 hrs
Type: functional
Settings: not given

Compound | Activity
CC1(C)CC(=O)N(CN2CCN(c3cccc(C(F)(F)F)c3)CC2)C1=O | Active
CC1(c2ccccc2)CC(=O)N(CN2CCN(c3ccc(Cl)cc3)CC2)C1=O (stereo unspecified) | 75%

Test system: Rattus norvegicus
Experiment: Anticonvulsant activity in Sprague-Dawley albino rat assessed as protection against maximal electroshock-induced seizures at 30 mg/kg, po after 2 hrs
Type: functional
Settings: not given

Compound | Activity [%]
CC1(C)CC(=O)N(CN2CCN(c3cccc(C(F)(F)F)c3)CC2)C1=O | 50
CC1(c2ccccc2)CC(=O)N(CN2CCN(c3ccc(Cl)cc3)CC2)C1=O (stereo unspecified) | 75

Test system: Rattus norvegicus
Experiment: Anticonvulsant activity in Sprague-Dawley albino rat assessed as protection against maximal electroshock-induced seizures at 30 mg/kg, po after 1 hr
Type: functional
Settings: not given

Compound | Activity [%]
CC1(C)CC(=O)N(CN2CCN(c3cccc(C(F)(F)F)c3)CC2)C1=O | 25
CC1(c2ccccc2)CC(=O)N(CN2CCN(c3ccc(Cl)cc3)CC2)C1=O (stereo unspecified) | 75

Test system: Rattus norvegicus
Experiment: Anticonvulsant activity in Sprague-Dawley albino rat assessed as protection against maximal electroshock-induced seizures at 30 mg/kg, po after 0.5 hrs
Type: functional
Settings: not given

Compound | Activity
CC1(C)CC(=O)N(CN2CCN(c3cccc(C(F)(F)F)c3)CC2)C1=O | 75%
CC1(c2ccccc2)CC(=O)N(CN2CCN(c3ccc(Cl)cc3)CC2)C1=O (stereo unspecified) | inactive

Test system: Rattus norvegicus
Experiment: Anticonvulsant activity in Sprague-Dawley albino rat assessed as protection against maximal electroshock-induced seizures at 30 mg/kg, po after 0.25 hrs
Type: functional
Settings: not given

Compound | Activity
CC1(C)CC(=O)N(CN2CCN(c3cccc(C(F)(F)F)c3)CC2)C1=O | 25%
CC1(c2ccccc2)CC(=O)N(CN2CCN(c3ccc(Cl)cc3)CC2)C1=O (stereo unspecified) | inactive

Test system: Mus musculus
Experiment: Neurotoxicity in CF-1 albino mouse at 300 mg/kg, ip after 4 hrs by rotarod test
Type: toxicity, organism-based
Design: dose 300 mg/kg, route intraperitoneal
Settings: in vivo

Compound | Activity
Cc1ccccc1N1CCN(CN2C(=O)CC(C)(c3ccccc3)C2=O)CC1 (stereo unspecified) | Non-toxic
CC1(c2ccccc2)CC(=O)N(CN2CCN(c3ccccc3)CC2)C1=O (stereo unspecified) | Non-toxic
CC1(c2ccccc2)CC(=O)N(CN2CCN(c3ccccc3Cl)CC2)C1=O (stereo unspecified) | Non-toxic
CC1(c2ccccc2)CC(=O)N(CN2CCN(c3ccc(Cl)cc3)CC2)C1=O (stereo unspecified) | Non-toxic

Test system: not listed separately
Experiment: Neurotoxicity in ip dosed CF-1 albino mouse after 0.5 hrs by rotarod test
Type: toxicity, organism-based
Settings: CF-1, mouse, in vivo

Compound | TD50 at 0.5 h [mg/kg]
Cc1ccccc1N1CCN(CN2C(=O)CC(C)(c3ccccc3)C2=O)CC1 (stereo unspecified) | 300
CC1(C)CC(=O)N(CN2CCN(c3ccccc3)CC2)C1=O | 300
CC1(C)CC(=O)N(CN2CCN(c3cccc(Cl)c3)CC2)C1=O | 300
CC1(C)CC(=O)N(CN2CCN(c3cccc(C(F)(F)F)c3)CC2)C1=O | 300
Cc1ccccc1N1CCN(CN2C(=O)CC(C)(C)C2=O)CC1 | 300
CC1(c2ccccc2)CC(=O)N(CN2CCN(c3ccccc3F)CC2)C1=O (stereo unspecified) | 300

Test system: Mus musculus
Experiment: Neurotoxicity in CF-1 albino mouse at 300 mg/kg, ip after 0.5 hrs by rotarod test
Type: toxicity, organism-based
Design: dose 300 mg/kg, route intraperitoneal
Settings: in vivo

Compound | Activity
CC1(c2ccccc2)CC(=O)N(CN2CCN(c3ccccc3)CC2)C1=O (stereo unspecified) | Non-toxic
CC1(c2ccccc2)CC(=O)N(CN2CCN(c3ccccc3Cl)CC2)C1=O (stereo unspecified) | Non-toxic
CC1(c2ccccc2)CC(=O)N(CN2CCN(c3ccc(Cl)cc3)CC2)C1=O (stereo unspecified) | Non-toxic
CC1(c2ccccc2)CC(=O)N(CN2CCN(c3cccc(C(F)(F)F)c3)CC2)C1=O (stereo unspecified) | Non-toxic

Test system: Mus musculus
Experiment: Anticonvulsant activity in CF-1 albino mouse assessed as protection against maximal electroshock-induced seizures at 300 mg/kg, ip after 4 hrs
Type: functional, organism-based
Design: dose 300 mg/kg
Settings: not given

Compound | Activity
Cc1ccccc1N1CCN(CN2C(=O)CC(C)(c3ccccc3)C2=O)CC1 (stereo unspecified) | inactive
CC1(C)CC(=O)N(CN2CCN(c3cccc(Cl)c3)CC2)C1=O | inactive
Cc1ccccc1N1CCN(CN2C(=O)CC(C)(C)C2=O)CC1 | inactive
CC1(c2ccccc2)CC(=O)N(CN2CCN(c3ccccc3Cl)CC2)C1=O (stereo unspecified) | inactive

Test system: Mus musculus
Experiment: Anticonvulsant activity in ip dosed CF-1 albino mouse assessed as protection against maximal electroshock-induced seizures after 4 hrs
Type: functional
Settings: not given

Compound | MED50 [mg/kg]
CC1(C)CC(=O)N(CN2CCN(c3ccccc3)CC2)C1=O | 100
CC1(C)CC(=O)N(CN2CCN(c3cccc(C(F)(F)F)c3)CC2)C1=O | 30
CC1(c2ccccc2)CC(=O)N(CN2CCN(c3ccccc3F)CC2)C1=O (stereo unspecified) | 100
CC1(c2ccccc2)CC(=O)N(CN2CCN(c3ccccc3)CC2)C1=O (stereo unspecified) | 100
CC1(c2ccccc2)CC(=O)N(CN2CCN(c3ccc(Cl)cc3)CC2)C1=O (stereo unspecified) | 100
CC1(c2ccccc2)CC(=O)N(CN2CCN(c3cccc(C(F)(F)F)c3)CC2)C1=O (stereo unspecified) | 100

Test system: Mus musculus
Experiment: Anticonvulsant activity in CF-1 albino mouse assessed as protection against maximal electroshock-induced seizures at 300 mg/kg, ip after 0.5 hrs
Type: functional, organism-based
Design: dose 300 mg/kg
Settings: not given

Compound | Activity
Cc1ccccc1N1CCN(CN2C(=O)CC(C)(c3ccccc3)C2=O)CC1 (stereo unspecified) | inactive
CC1(C)CC(=O)N(CN2CCN(c3ccccc3)CC2)C1=O | inactive
CC1(C)CC(=O)N(CN2CCN(c3cccc(Cl)c3)CC2)C1=O | inactive
CC1(C)CC(=O)N(CN2CCN(c3cccc(C(F)(F)F)c3)CC2)C1=O | inactive
Cc1ccccc1N1CCN(CN2C(=O)CC(C)(C)C2=O)CC1 | inactive
CC1(c2ccccc2)CC(=O)N(CN2CCN(c3ccccc3F)CC2)C1=O (stereo unspecified) | inactive
CC1(c2ccccc2)CC(=O)N(CN2CCN(c3ccccc3)CC2)C1=O (stereo unspecified) | inactive
CC1(c2ccccc2)CC(=O)N(CN2CCN(c3ccccc3Cl)CC2)C1=O (stereo unspecified) | inactive
CC1(c2ccccc2)CC(=O)N(CN2CCN(c3ccc(Cl)cc3)CC2)C1=O (stereo unspecified) | inactive
CC1(c2ccccc2)CC(=O)N(CN2CCN(c3cccc(C(F)(F)F)c3)CC2)C1=O (stereo unspecified) | inactive
